Reference: patent US9610274B2, “Methods for treating bipolar disorder” (priority 2010, dated 2017)
Entries after “also recorded” stand apart in the source; their conditions may differ. Like-named read-outs stand apart in the source and are kept apart here.

Assays:
mice = assay: Forced swimming test in mice; type: in vivo; conditions: for ED50: Mus musculus
[1] = target: T1, hDAT (human dopamine transporter) (Homo sapiens, UniProt Q01959); assay: Inhibition of [125I]RTI-55 binding to hDAT in HEK293 cell membranes; conditions: HEK-hDAT cells; mean ± SEM
T1 construct: expressed in transfected cells; host or cells: HEK293 (ATCC), puromycin-selected clonal cells

[2] = target: T2, hSERT (human serotonin transporter) (Homo sapiens, UniProt P31645); assay: Inhibition of [125I]RTI-55 binding to hSERT in HEK293 cell membranes; conditions: HEK-hSERT cells; mean ± SEM
T2 construct: expressed in transfected cells; host or cells: HEK293 (ATCC), puromycin-selected clonal cells

[3] = target: T3, hNET (human norepinephrine transporter) (Homo sapiens, UniProt P23975); type: binding; conditions: HEK-hNET cells; mean ± SEM
T3 construct: expressed in transfected cells; host or cells: HEK293 (ATCC), geneticin-selected clonal cells

[4] = target: T2, hSERT (human serotonin transporter); assay: Inhibition of [3H]serotonin uptake in HEK-hSERT cells; type: cell-based
[5] = tested on: homozygous mutant dopamine transporter knockout (KO) mice; assay: Spontaneous activity in the open field, dopamine transporter KO mice; type: in vivo
Protocol: Male and female wild-type and homozygous mutant dopamine transporter KO mice (n˜10 mice/genotype/agent; produced by in vivo homologous recombination and bred at Duke University Medical Center, Durham, N.C.) were tested for spontaneous activity in the open field following a single injection of the vehicle or compound. […] All drugs were given in a volume of 5 mL/kg. Animals were returned to the open field for an additional 90 min. Spontaneous activity was evaluated in an automated Omnitech Digiscan apparatus (Accuscan Instruments, Columbus, Ohio). Activity was summated at 5 min intervals over the 2 h period of testing. Horizontal activity or locomotion was measured in terms of the total distance covered in cm, vertical activity or rearing was expressed in terms of the total numbers of vertical beam breaks, and stereotypy was quantified in terms of repetitive breaks of a given beam or beams with intervals of less than 1 sec. For the analyses, 10 WT and 10 KO mice were run in each of the treatment groups with approximately equal numbers of males and females assigned to each group. Data were analyzed by the Statistical Package for Social Sciences programs (version 11.0 for Windows; SPSS Science, Chicago, Ill.). The results for each dependent variable were analyzed by repeated analyses of variance (RMANOVA) for within subjects effects (group differences over time) and between-subjects effects (tests of main effects and interactions). Bonferroni corrected pair-wise comparisons were used as the post-hoc tests. A p <0.05 was considered significant.

isolated mice = assay: Isolation-induced fighting in mice; type: in vivo; conditions: Mus musculus
Protocol: Male CD-1 mice (15-20 g) were utilized in this experiment. The test compound (15, 22 and 30 mg/kg) was dissolved in physiological saline (0.9%) and administered orally (PO) in a volume of 1 mL/100 g body weight.
Mice were isolated for up to 8 weeks in individual solid walled wire cages (24×20×17 cm). The animals were not disturbed except to replenish food. Aggression was tested by placing an intruder mouse into the home cage of the resident animal. Aggression was characterized by an attack on the “intruder” during a three minute period. […] Only those resident mice displaying fighting behavior were selected. […] ED50 values were calculated from the percent inhibition of fighting in computer program based on probit analysis.

[6] = tested on: adult human subjects with moderate or severe major depression without psychotic features; assay: Randomized double-blind placebo- and active-controlled 6-week study in major depression; type: in vivo; conditions: for MADRS response rate / MADRS remission rate: Week 6; for MADRS response rate: >50% improvement in MADRS total score; for MADRS remission rate: MADRS total score less than 9; for 3 Atypical items of HAM-D 31, mean result / CGI-S score, mean result / MADRS core mood subscale, mean result / MADRS sadness (Items 1 + 2), mean result / MADRS total score (primary), mean result / MADRS total score, mean result: change from baseline at Week 6; for ABCD questionnaire items with statistically significant superiority to placebo: post hoc analyses, of 51 items, U.S. sites
Protocol: The primary objective of this study was to determine the efficacy of 2 target doses of test compound (200 and 400 mg/day) in comparison with placebo during 6 weeks of treatment in adult human subjects with moderate or severe major depression without psychotic features. An active comparator (paroxetine) was included to assist in distinguishing a negative study from a failed study. In addition, an exit interview was intended to gather information on unexpected benefits of the test compound in order to refine the clinical development program. […] In addition, positive effects of the test compound on ratings of physical energy/fitness, reduction in sadness or depression and mental energy or motivation.
This was a randomized, double-blind, parallel-group, active, and placebo-controlled, multicenter study conducted in the U.S. (23 centers) and Canada (4 centers). There were 2 phases: a pretreatment phase (screening/washout and a baseline visit) and a 6-week, double-blind treatment phase. Paroxetine, a positive control, was included to evaluate assay sensitivity. After washout (if needed) of prohibited substances, subjects were randomly assigned (1:1:1:1) to receive the test compound titrated to a target dose of 200 mg/day or 400 mg/day, matching placebo, or a fixed dose (20 mg/day) of paroxetine. Study drug was given twice daily for 6 weeks. Efficacy and safety were assessed weekly during the double-blind phase. Subjects completing the study underwent an Exit Interview (“Your Health and Well-Being”) and completed an Assessment of Benefits of Clinical-trial Drug-treatment (ABCD) questionnaire (U.S. sites only).

[7] = Per-Protocol (LOCF), TC 200 mg/day
[8] = Per-Protocol (LOCF), TC 400 mg/day

T2 sequence (P31645 whole entry): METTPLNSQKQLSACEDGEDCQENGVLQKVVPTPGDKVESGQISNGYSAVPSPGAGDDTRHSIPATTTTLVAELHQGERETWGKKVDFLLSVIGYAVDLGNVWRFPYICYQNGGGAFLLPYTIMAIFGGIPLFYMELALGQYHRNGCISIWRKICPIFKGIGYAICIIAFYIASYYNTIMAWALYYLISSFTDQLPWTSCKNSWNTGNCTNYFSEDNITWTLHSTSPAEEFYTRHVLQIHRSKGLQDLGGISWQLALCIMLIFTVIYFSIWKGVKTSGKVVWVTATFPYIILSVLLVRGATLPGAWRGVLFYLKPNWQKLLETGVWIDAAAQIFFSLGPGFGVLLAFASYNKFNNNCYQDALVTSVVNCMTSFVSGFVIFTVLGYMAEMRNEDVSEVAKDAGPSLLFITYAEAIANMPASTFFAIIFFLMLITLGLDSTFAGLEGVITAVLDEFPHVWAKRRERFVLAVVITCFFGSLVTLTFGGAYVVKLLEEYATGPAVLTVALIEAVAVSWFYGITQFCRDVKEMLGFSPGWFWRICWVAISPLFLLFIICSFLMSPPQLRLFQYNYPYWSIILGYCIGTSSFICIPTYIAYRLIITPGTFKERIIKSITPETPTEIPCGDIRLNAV
T3 sequence (P23975 whole entry): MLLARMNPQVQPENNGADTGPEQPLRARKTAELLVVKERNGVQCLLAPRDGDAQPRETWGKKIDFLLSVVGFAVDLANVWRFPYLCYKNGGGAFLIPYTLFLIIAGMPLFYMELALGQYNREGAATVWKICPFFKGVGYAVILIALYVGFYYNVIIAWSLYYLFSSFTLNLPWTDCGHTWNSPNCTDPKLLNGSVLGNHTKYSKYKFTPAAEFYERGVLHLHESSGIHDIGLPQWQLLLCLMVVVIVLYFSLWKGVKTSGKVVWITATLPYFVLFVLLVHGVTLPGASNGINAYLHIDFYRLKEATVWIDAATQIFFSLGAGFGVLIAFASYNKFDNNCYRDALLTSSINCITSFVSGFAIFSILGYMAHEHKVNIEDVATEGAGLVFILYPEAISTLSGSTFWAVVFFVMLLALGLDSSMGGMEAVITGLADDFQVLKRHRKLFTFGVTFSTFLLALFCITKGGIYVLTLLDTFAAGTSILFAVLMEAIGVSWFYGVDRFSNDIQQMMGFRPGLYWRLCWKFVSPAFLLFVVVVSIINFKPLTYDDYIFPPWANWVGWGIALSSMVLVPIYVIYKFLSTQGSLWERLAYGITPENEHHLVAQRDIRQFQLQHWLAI
T1 sequence (Q01959 whole entry): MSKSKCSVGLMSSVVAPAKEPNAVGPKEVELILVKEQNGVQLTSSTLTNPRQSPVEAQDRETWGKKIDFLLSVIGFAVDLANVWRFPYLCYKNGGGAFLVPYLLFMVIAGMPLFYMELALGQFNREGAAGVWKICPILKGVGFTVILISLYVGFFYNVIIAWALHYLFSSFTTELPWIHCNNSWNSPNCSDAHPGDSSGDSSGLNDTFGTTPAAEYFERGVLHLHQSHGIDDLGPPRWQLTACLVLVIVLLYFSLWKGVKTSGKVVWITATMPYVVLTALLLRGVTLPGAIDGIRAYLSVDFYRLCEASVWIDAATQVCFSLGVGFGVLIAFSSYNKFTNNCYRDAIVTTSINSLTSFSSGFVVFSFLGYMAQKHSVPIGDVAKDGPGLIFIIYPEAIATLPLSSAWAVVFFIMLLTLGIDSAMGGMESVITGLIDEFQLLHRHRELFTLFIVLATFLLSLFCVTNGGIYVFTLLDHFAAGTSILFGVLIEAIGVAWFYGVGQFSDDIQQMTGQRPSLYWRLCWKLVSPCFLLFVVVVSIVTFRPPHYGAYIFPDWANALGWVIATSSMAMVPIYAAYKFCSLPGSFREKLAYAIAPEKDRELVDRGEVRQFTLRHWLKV

## NC(=O)OC[C@H](N)Cc1ccccc1 [test compound, O-carbamoyl-(D)-phenylalaninol]
mice; multiple dosing PO (twice a day for 3 days plus a dose on Day 4), read-out: ED50 (reduction of mean immobility time)
  ED50: 5.5 mg/kg
mice; read-out: ED50 (50% reduction in mean immobility time), single dose PO, 1 hour post-treatment
  ED50: 16.6 mg/kg
mice; multiple dosing 3 mg/kg PO, control 85 sec
  mean duration of immobility: 63 s
mice; multiple dosing 5 mg/kg PO, control 136 sec, significant
  mean duration of immobility: 73 s
mice; multiple dosing 8 mg/kg PO, control 114 sec, significant
  mean duration of immobility: 39 s
mice; single dose 10 mg/kg PO, control 131 sec
  mean duration of immobility: 101 s
mice; single dose 15 mg/kg PO, control 154 sec, significant
  mean duration of immobility: 80 s
mice; single dose 30 mg/kg PO, control 132 sec, significant
  mean duration of immobility: 30 s
[1]
  Hill coefficient: −0.77 ± 0.12
[2]
  Hill coefficient: −2.28 ± 0.05
[3]
  Hill coefficient: −1.45 ± 0.34
[4]
  IC50: > 100 µM
[5]; single SC injection, test compound 10, 30, 100 mg/kg, amphetamine 2 mg/kg, 90 min post-injection, relative to vehicle
  spontaneous activity (locomotor, rearing and stereotypical activities): selectively reduced activity of the KO mice in a dose-dependent manner; also recorded: reduced activities in a dose-dependent fashion
[5]; test compound 100 mg/kg SC versus amphetamine 2 mg/kg SC
  spontaneous activity compared with amphetamine: suppressed activities more efficiently than amphetamine
Isolated mice; 1 h, 15 mg/kg PO, 60 min after dosing
  inhibition at 15 mg/kg: 28%
Isolated mice; 1 h, 22 mg/kg PO, 60 min after dosing
  inhibition at 22 mg/kg: 44%
Isolated mice; 1 h, 30 mg/kg PO, 60 min after dosing
  inhibition at 30 mg/kg: 56%
Isolated mice; PO, inhibition of isolation-induced fighting, probit analysis, read-out: ED50 (mg/kg, PO) (confidence limits)
  ED50: 25.9 mg/kg
[6]; ITT (LOCF), TC 200 mg/day
  MADRS response rate: 36%
  MADRS remission rate: 15%
  3 Atypical items of HAM-D 31, mean result: −0.4
  CGI-S score, mean result: −1.2
  MADRS core mood subscale, mean result: −8.6
  MADRS sadness (Items 1 + 2), mean result: −3.2
  MADRS total score (primary), mean result: −12.1
[6]; ITT (LOCF), TC 400 mg/day
  MADRS response rate: 41%
  MADRS remission rate: 19%
  3 Atypical items of HAM-D 31, mean result: −0.8
  CGI-S score, mean result: −1.3
  MADRS core mood subscale, mean result: −8.7
  MADRS sadness (Items 1 + 2), mean result: −3.4
  MADRS total score (primary), mean result: −12.4
[6]; ITT (LOCF), test compound 200 mg and 400 mg, paroxetine 20 mg/day
  superiority to placebo on the primary endpoint (change from baseline at Week 6 in MADRS total score): Neither the 200-mg nor the 400-mg dose of the test compound was statistically significantly superior to placebo
[6]; [7]
  MADRS response rate: 40%
  MADRS remission rate: 20%
  CGI-S score, mean result: −1.5
  MADRS total score, mean result: −14.8
[6]; [8]
  MADRS response rate: 50%
  MADRS remission rate: 29%
  CGI-S score, mean result: −1.6
  MADRS total score, mean result: −15.0
[6]; men, test compound 200 mg
  superiority to placebo on the primary endpoint, men: nominally statistically significant superiority to placebo
[6]; test compound 200 mg
  ABCD questionnaire items with statistically significant superiority to placebo: 14 items
[6]; test compound 400 mg
  ABCD questionnaire items with statistically significant superiority to placebo: 8 items
[6]; women, test compound 400 mg
  superiority to placebo on the primary endpoint, women: statistically significant superiority to placebo
